Data taken from article PMC5862592, “CDK8/19 inhibition induces premature G1/S transition and ATR-dependent cell death in prostate cancer cells” (Oncotarget, 2018).
Where two headings read alike, the source gives them in different places.

What was measured:
Assay in all cases: biochemical
Parameters in all cases: KINOMEscan active site-directed competition binding assay (DiscoveRx), 456 kinases, per cent of control at 300 nM
Conditions in all cases: read-out: Percent of Control (%)
TLK2 = TLK2 (Homo sapiens, UniProt Q86UE8)
Procedure: (§1) Kinase selectivity of T-474 and T-418 was evaluated at 300 nmol/L using a panel of 456 kinases at DiscoveRx (KINOMEscan). The platform employs an active site-directed competition binding assay to quantitatively measure interactions between test compounds and kinases. […] In VCaP prostate cancer cells, treatment with T-474 or T-418 suppressed the phosphorylation of the known CDK8 substrate STAT1 at Ser727 both in the absence and in the presence of IFN-γ (Figure 1B), which stimulates CDK8-mediated STAT1 phosphorylation.

TRKB = molecular target: T1, TRKB (Homo sapiens, UniProt Q16620)
T1 construct: gene NTRK2
Procedure: as §1

KIT(D816V) = KIT(D816V) (Homo sapiens, UniProt P10721, D816V)
Procedure: as §1

[1] = molecular target: T2, ABL1(Q252H)-phosphorylated (Homo sapiens, UniProt P00519, Q252H)
T2 construct: phosphorylated
Procedure: as §1

PIK3CA(C420R) = PIK3CA(C420R) (Homo sapiens, UniProt P42336, C420R)
Procedure: as §1

NDR1 = molecular target: T3, NDR1 (Homo sapiens, UniProt Q15208)
T3 construct: gene STK38
Procedure: as §1

OSR1 = molecular target: T4, OSR1 (Homo sapiens, UniProt O95747)
T4 construct: gene OXSR1
Procedure: as §1

CDK4-cyclinD3 = molecular target: T5, CDK4-cyclinD3 (Homo sapiens, UniProt P11802)
T5 construct: cyclinD3
Procedure: as §1

[2] = molecular target: T6, RSK2(Kin.Dom.2-C-terminal) (Homo sapiens, UniProt P51812)
T6 construct: gene RPS6KA3; Kin.Dom.2-C-terminal
Procedure: as §1

[3] = molecular target: T7, TYK2(JH1domain-catalytic) (Homo sapiens, UniProt P29597)
T7 construct: JH1domain-catalytic
Procedure: as §1

[4] = molecular target: T8, ABL1(E255K)-phosphorylated (Homo sapiens, UniProt P00519, E255K)
T8 construct: phosphorylated
Procedure: as §1

PAK2 = PAK2 (Homo sapiens, UniProt Q13177)
Procedure: as §1

[5] = molecular target: T9, ABL1(F317I)-phosphorylated (Homo sapiens, UniProt P00519, F317I)
T9 construct: phosphorylated
Procedure: as §1

GRK7 = GRK7 (Homo sapiens, UniProt Q8WTQ7)
Procedure: as §1

SYK = SYK (Homo sapiens, UniProt P43405)
Procedure: as §1

JNK2 = molecular target: T10, JNK2 (Homo sapiens, UniProt P45984)
T10 construct: gene MAPK9
Procedure: as §1

SRPK3 = SRPK3 (Homo sapiens, UniProt Q9UPE1)
Procedure: as §1

FLT3(K663Q) = FLT3(K663Q) (Homo sapiens, UniProt P36888, K663Q)
Procedure: as §1

RIPK4 = RIPK4 (Homo sapiens, UniProt P57078)
Procedure: as §1

ADCK4 = molecular target: T11, ADCK4 (Homo sapiens, UniProt Q96D53)
T11 construct: gene COQ8B
Procedure: as §1

CDC2L5 = molecular target: T12, CDC2L5 (Homo sapiens, UniProt Q14004)
T12 construct: gene CDK13
Procedure: as §1

Sequence of SRPK3 (Q9UPE1 whole entry): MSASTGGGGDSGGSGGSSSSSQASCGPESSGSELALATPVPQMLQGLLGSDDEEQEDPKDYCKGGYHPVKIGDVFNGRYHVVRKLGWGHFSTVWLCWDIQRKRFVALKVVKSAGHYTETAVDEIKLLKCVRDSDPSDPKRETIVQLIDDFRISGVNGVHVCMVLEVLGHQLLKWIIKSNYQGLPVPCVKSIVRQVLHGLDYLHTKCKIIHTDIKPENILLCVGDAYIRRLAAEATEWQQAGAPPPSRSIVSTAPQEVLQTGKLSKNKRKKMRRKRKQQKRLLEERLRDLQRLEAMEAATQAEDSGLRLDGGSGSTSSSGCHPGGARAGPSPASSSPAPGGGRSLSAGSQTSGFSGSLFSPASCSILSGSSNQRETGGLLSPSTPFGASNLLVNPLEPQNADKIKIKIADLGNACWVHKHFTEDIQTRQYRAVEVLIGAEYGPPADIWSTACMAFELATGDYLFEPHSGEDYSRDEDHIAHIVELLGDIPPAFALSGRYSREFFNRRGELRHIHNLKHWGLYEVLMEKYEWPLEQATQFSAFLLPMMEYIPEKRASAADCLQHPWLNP
Sequence of PAK2 (Q13177 whole entry): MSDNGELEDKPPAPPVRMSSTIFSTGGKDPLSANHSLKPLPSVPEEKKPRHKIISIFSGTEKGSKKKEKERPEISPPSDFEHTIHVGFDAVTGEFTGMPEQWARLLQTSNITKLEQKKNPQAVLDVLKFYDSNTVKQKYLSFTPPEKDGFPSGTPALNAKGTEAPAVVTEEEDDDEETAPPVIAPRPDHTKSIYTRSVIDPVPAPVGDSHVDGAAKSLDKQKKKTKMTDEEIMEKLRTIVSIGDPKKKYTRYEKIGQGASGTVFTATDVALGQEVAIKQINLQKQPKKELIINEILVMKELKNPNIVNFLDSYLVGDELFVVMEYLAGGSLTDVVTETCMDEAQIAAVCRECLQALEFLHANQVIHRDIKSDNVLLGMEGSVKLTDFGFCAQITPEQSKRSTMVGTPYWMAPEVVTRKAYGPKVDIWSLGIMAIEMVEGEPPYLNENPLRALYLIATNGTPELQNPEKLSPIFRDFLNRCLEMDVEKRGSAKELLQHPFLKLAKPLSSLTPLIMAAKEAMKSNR
T5 sequence (P11802 whole entry): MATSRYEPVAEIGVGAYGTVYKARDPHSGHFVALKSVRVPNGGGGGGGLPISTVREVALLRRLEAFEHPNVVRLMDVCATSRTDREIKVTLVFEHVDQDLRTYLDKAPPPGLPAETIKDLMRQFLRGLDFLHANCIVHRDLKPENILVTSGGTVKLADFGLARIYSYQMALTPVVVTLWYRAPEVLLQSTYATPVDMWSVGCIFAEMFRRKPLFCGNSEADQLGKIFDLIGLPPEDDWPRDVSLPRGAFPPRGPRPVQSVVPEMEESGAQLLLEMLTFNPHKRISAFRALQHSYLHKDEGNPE
T5 sequence (P30281 whole entry partner): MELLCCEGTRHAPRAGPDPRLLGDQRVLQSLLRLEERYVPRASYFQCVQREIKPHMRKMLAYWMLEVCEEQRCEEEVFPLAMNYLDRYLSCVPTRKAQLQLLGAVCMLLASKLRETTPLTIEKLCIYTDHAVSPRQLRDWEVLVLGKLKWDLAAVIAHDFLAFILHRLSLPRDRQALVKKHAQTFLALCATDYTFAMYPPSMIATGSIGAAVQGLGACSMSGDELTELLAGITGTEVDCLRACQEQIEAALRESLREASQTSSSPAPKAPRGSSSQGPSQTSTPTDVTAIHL
Sequence of PIK3CA(C420R) (P42336 whole entry C420R): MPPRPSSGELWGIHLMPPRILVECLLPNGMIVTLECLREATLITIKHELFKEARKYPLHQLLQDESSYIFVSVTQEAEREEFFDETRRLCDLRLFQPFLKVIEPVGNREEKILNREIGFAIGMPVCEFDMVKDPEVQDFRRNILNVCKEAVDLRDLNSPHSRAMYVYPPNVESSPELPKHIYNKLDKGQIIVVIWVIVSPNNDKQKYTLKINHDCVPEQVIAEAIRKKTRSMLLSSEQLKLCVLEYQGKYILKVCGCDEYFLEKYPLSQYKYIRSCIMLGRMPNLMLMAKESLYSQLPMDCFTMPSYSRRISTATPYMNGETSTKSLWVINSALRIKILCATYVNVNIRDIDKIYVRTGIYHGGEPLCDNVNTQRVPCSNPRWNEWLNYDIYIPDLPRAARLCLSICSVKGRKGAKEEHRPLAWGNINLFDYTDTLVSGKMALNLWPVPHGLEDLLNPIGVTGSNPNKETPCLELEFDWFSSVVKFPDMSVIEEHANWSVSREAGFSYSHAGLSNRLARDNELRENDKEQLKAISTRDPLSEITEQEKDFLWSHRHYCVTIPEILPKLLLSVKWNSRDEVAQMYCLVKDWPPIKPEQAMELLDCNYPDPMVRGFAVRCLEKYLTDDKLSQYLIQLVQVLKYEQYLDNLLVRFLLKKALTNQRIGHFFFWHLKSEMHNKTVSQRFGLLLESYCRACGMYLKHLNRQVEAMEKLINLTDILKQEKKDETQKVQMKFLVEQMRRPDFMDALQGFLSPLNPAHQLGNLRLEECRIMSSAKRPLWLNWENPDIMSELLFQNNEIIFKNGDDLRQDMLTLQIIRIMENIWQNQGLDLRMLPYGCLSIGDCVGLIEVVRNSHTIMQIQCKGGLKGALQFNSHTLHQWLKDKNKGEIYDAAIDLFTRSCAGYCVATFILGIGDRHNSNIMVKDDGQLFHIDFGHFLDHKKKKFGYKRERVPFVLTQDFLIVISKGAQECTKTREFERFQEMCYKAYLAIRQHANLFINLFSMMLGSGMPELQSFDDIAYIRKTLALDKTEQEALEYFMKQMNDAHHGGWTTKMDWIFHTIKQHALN
T10 sequence (P45984 whole entry): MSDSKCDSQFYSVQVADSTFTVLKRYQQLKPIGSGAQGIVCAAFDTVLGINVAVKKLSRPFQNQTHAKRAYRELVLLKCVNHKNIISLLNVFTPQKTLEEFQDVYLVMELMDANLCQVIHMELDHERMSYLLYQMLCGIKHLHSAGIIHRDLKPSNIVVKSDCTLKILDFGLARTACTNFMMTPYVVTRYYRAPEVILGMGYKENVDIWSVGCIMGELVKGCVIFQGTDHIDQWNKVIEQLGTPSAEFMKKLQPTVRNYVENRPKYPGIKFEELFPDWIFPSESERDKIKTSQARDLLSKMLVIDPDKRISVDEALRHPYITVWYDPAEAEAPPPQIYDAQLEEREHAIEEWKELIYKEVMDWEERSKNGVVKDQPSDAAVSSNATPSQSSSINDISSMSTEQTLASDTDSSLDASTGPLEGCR
T11 sequence (Q96D53 whole entry): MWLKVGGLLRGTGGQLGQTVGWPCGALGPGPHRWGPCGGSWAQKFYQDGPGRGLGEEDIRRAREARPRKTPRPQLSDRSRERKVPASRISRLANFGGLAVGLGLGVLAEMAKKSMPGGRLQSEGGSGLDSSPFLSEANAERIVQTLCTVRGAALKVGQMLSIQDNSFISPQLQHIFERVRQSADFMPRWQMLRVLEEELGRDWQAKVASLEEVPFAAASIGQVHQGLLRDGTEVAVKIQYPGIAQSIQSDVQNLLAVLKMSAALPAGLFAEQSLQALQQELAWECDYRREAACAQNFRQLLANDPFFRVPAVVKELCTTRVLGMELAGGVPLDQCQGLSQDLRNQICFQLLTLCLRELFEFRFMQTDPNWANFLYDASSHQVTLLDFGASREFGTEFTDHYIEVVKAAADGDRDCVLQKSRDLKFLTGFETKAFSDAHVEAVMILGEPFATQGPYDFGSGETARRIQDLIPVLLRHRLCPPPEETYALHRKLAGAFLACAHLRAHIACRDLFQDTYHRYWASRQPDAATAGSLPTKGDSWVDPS
T4 sequence (O95747 whole entry): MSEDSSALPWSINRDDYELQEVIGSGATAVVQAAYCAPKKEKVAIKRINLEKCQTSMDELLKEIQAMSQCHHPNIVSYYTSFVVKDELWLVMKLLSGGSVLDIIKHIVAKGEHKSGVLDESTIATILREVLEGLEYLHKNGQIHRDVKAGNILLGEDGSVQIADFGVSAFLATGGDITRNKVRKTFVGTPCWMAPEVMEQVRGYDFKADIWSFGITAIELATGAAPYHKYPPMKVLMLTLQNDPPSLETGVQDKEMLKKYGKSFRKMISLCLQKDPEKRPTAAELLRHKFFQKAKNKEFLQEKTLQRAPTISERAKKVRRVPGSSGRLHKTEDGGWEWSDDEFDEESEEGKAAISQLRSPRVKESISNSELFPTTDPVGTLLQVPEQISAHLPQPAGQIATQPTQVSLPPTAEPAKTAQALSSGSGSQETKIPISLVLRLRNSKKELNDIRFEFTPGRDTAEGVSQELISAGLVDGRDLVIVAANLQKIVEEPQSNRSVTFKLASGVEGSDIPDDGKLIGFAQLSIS
T3 sequence (Q15208 whole entry): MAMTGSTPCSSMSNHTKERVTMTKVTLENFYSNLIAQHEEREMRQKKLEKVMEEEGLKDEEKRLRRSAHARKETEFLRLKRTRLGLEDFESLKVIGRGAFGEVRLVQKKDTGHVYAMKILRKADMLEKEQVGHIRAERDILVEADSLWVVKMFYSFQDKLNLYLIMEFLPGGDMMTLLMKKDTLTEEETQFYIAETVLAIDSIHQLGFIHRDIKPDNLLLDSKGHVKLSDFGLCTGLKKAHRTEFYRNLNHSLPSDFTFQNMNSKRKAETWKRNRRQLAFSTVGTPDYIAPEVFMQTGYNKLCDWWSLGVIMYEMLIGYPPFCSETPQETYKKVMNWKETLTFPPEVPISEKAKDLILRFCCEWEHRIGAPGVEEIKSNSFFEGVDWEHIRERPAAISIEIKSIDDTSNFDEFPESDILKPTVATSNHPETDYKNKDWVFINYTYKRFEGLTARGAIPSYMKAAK

With Cc1ncccc1Oc1sc(C(N)=O)c2c1-c1c(cnn1C)CC2 [T-474, 1-methyl-8-((2-methylpyridin-3-yl)oxy)-4,5-dihydro-1H-thieno[3,4-g]indazole-6-carboxamide] the remaining binding at 0.3 µM (TLK2) was 100%, the remaining binding at 0.3 µM (TRKB) was 92% and the remaining binding at 0.3 µM (KIT(D816V)) was 94%. The remaining binding at 0.3 µM [1] was 89%, the remaining binding at 0.3 µM (PIK3CA(C420R)) was 95% and the remaining binding at 0.3 µM (NDR1) was 39%. The remaining binding at 0.3 µM (OSR1) was 60%, the remaining binding at 0.3 µM (CDK4-cyclinD3) was 98% and the remaining binding at 0.3 µM [2] was 100%. The remaining binding at 0.3 µM [3] was 40%, the remaining binding at 0.3 µM [4] was 83% and the remaining binding at 0.3 µM (PAK2) was 88%. For the same molecule, the remaining binding at 0.3 µM [5] was 100%, the remaining binding at 0.3 µM (GRK7) was 100% and the remaining binding at 0.3 µM (SYK) was 100%. The remaining binding at 0.3 µM (JNK2) was 87%, the remaining binding at 0.3 µM (SRPK3) was 100% and the remaining binding at 0.3 µM (FLT3(K663Q)) was 100%. For the same molecule, the remaining binding at 0.3 µM (RIPK4) was 100%, the remaining binding at 0.3 µM (ADCK4) was 92% and the remaining binding at 0.3 µM (CDC2L5) was 86%.

In the case of O=C(/C=C/c1cnccc1-c1ccc(F)cc1)Nc1ccc(CCc2nnco2)cc1 [T-418, (2E)-3-(4-(4-fluorophenyl)pyridin-3-yl)-N-(4-(2-(1,3,4-oxadiazol-2-yl)ethyl)phenyl)acrylamide], the remaining binding at 0.3 µM (TLK2; sheet T-418) is reported as 100%, the remaining binding at 0.3 µM (TRKB; sheet T-418) is reported as 100% and the remaining binding at 0.3 µM (KIT(D816V); sheet T-418) is reported as 96%. It also gave a remaining binding at 0.3 µM ([1]; sheet T-418) of 84%, a remaining binding at 0.3 µM (PIK3CA(C420R); sheet T-418) of 86% and a remaining binding at 0.3 µM (NDR1; sheet T-418) of 46%. The remaining binding at 0.3 µM (OSR1; sheet T-418) was 53%, the remaining binding at 0.3 µM (CDK4-cyclinD3; sheet T-418) was 95% and the remaining binding at 0.3 µM ([2]; sheet T-418) was 100%. For the same molecule, the remaining binding at 0.3 µM ([3]; sheet T-418) was 40%, the remaining binding at 0.3 µM ([4]; sheet T-418) was 83% and the remaining binding at 0.3 µM (PAK2; sheet T-418) was 70%. For the same molecule, the remaining binding at 0.3 µM ([5]; sheet T-418) was 100%, the remaining binding at 0.3 µM (GRK7; sheet T-418) was 80% and the remaining binding at 0.3 µM (SYK; sheet T-418) was 100%. For the same molecule, the remaining binding at 0.3 µM (JNK2; sheet T-418) was 86%, the remaining binding at 0.3 µM (SRPK3; sheet T-418) was 100% and the remaining binding at 0.3 µM (FLT3(K663Q); sheet T-418) was 100%. The remaining binding at 0.3 µM (RIPK4; sheet T-418) was 100%, the remaining binding at 0.3 µM (ADCK4; sheet T-418) was 91% and the remaining binding at 0.3 µM (CDC2L5; sheet T-418) was 87%.
